Assays:
Assay type in all cases: in vivo
[1] = test system: spring barley, HORVS Montoya; assay: Seed treatment with safener; post-emergence herbicide, crop damage; details: 21 DAT; for HER effect + SAF / Reduction [%] / Reduction [Difference]: mefenpyr-diethyl 0.5 g a.i./kg seed
Description: (§1) For safener seed treatment trials, sufficient seed amounts of the respective crops (spring wheat (TRZAS); spring barley (HORVS)) were weighed into screw cap glass bottles with a minimum volume trice of the seeds.
(§2) As a first step, specified safeners formulated as wettable powder (WP) or wettable granules (WG) were weighed out for the required dosages (g a.i./kg seed), corresponding to the seed amounts. The safener amounts were mixed with a coloured slurry blind formulation type, prediluted with milk at 3.5% fat rate (25 mgs slurry formulation plus 2 ml milk per 10 grams of seed). A tube roller was used for coating. The solutions were gradually pipetted each on the rotating seeds followed by coating for min. 3 hours until all liquid had been soaked up by the seeds. Thereafter, the coated seeds were put flat on open trays for drying over night at room temperature.
(§3) Treated seeds were then placed into pots (7 cm diameter) on the surface of sandy loam, pressed down, flat covered with additional soil and finally covered with sandy soil, also pressed down, watered, and kept under good growth conditions in a greenhouse, until the plants had reached 2-leaf-stage (BBCH 12).
(§4) At that stage, post-emergence application of the specified herbicides was done on:
(§5) a) pot sets containing plants with safener-coated seeds as described above,
(§6) b) as a reference, pot sets of plants without seed treatment.
(§7) The herbicides were formulated as wettable powder (WP). Equivalent to the spray area, compound amounts were weighed out and diluted related to the water application rate (300 l/ha) to an aqueous suspension plus additive (1 l/ha MERO). Dosage related equivalents were conventionally sprayed on trays with the potted plants.
(§8) After application, the test plants were kept under good growth conditions in a greenhouse.
(§9) Assessment timings were 10 and 21 days after treatment (DAT) with the herbicide, by visual scoring of the crop damage in % (comparison of untreated with treated plants, either sprayed only with herbicide or with herbicide on plants with treated seeds).

[2] = test system: spring wheat, TRZAS Triso; assay: as above; details: for HER effect + SAF [%] (crop damage) / Reduction [%] / Reduction [Difference]: mefenpyr-diethyl 0.5 g a.i./kg seed; for HER effect [%] (crop damage, herbicide without safener): no safener
Description: as §1, §2, §3, §4, §5, §6, §7, §8, §9

[3] = test system: spring wheat, TRZAS Triso; assay: Tank-mix; post-emergence: crop damage by herbicide with/without safener mefenpyr-diethyl
Procedure: (§10) Seeds of crops (spring wheat, TRZAS; spring barley, HORVS; maize, ZEAMA) were placed in sandy loam soil in peat pots, covered with soil and cultivated in a greenhouse under good growth conditions. Two to three weeks after sowing, the test plants were treated at the 1 to 3-leaf stage. The herbicide/safener active compound combinations according to the invention, formulated as wettable powders or emulsion concentrates, and, in parallel tests, the correspondingly formulated individual active compounds were sprayed onto the green parts of the plants in various dosages using an amount of water of 300 l/ha (converted).
(§11) The pots were returned under good growing conditions in a glasshouse and a visual assessment of herbicidal effects was made at intervals from 1 to 3 weeks after herbicide application (DAT=days after treatment). Assessment was on a percentage basis in comparison with untreated control plants (0%=no injury, 100%=complete kill).

[4] = test system: spring barley, HORVS Montoya; assay: as above; details: 21 DAT
Procedure: as §10, §11

[5] = HER 32 g a.i./ha post-emergence
[6] = herbicide alone 8 g a.i./ha post-emergence
[7] = herbicide alone 32 g a.i./ha post-emergence
[8] = HER 2 g a.i./ha + mefenpyr-diethyl 50 g a.i./ha, 10 DAT
[9] = HER 8 g a.i./ha + mefenpyr-diethyl 50 g a.i./ha, 10 DAT
[10] = HER 2 g a.i./ha + mefenpyr-diethyl 100 g a.i./ha
[11] = HER 2 g a.i./ha + mefenpyr-diethyl 50 g a.i./ha, 21 DAT
[12] = HER 8 g a.i./ha + mefenpyr-diethyl 100 g a.i./ha

SMILES: COC(=O)C1C=CC(NC(=O)C2(C)CC(c3cc(Cl)cc(C#N)c3)=NO2)C1 (mixture of isomers) [Example 1.23]
- HER effect + SAF ([1]; HER 8 g a.i./ha post-emergence): 0%
- Reduction [%] ([1]; HER 8 g a.i./ha post-emergence): 100%
- Reduction [Difference] ([1]; HER 8 g a.i./ha post-emergence): 20
- HER effect + SAF [1, 5]: 10%
- Reduction [%] [1, 5]: 67%
- Reduction [Difference] [1, 5]: 20
- HER effect [1, 6]: 20%
- HER effect [1, 7]: 30%
- HER effect + SAF [%] (crop damage) ([2]; 21 DAT, HER dose 8 g a.i./ha): 0%
- Reduction [%] ([2]; 21 DAT, HER dose 8 g a.i./ha): 100%
- Reduction [Difference] ([2]; 21 DAT, HER dose 8 g a.i./ha): 20
- HER effect [%] (crop damage, herbicide without safener) ([2]; 21 DAT, HER dose 8 g a.i./ha): 20%

SMILES: CSCCOC(=O)C1C=CC(NC(=O)C2(C(F)(F)F)CC(c3cc(F)cc(F)c3)=NO2)C1 (centres unmarked) [Example 1.7]
- HER effect + SAF [3, 8]: 0%
- Reduction [%] [3, 8]: 100%
- Reduction [Difference] [3, 8]: 50
- HER effect + SAF [3, 9]: 70%
- Reduction [%] [3, 9]: 25%
- Reduction [Difference] [3, 9]: 23
- HER effect ([3]; herbicide alone 2 g a.i./ha, 10 DAT): 50%
- HER effect ([3]; herbicide alone 8 g a.i./ha, 10 DAT): 93%
- HER effect + SAF ([1]; HER 2 g a.i./ha post-emergence): 40%
- Reduction [%] ([1]; HER 2 g a.i./ha post-emergence): 43%
- Reduction [Difference] ([1]; HER 2 g a.i./ha post-emergence): 30
- HER effect + SAF [1, 5]: 50%
- Reduction [%] [1, 5]: 47%
- Reduction [Difference] [1, 5]: 45
- HER effect ([1]; herbicide alone 2 g a.i./ha post-emergence): 70%
- HER effect [1, 7]: 95%
- HER effect + SAF [%] (crop damage) ([2]; 10 DAT, HER dose 2 g a.i./ha): 0%
- Reduction [%] ([2]; 10 DAT, HER dose 2 g a.i./ha): 100%
- Reduction [Difference] ([2]; 10 DAT, HER dose 2 g a.i./ha): 50
- HER effect [%] (crop damage, herbicide without safener) ([2]; 10 DAT, HER dose 2 g a.i./ha): 50%
- HER effect + SAF [%] (crop damage) ([2]; 10 DAT, HER dose 8 g a.i./ha): 40%
- Reduction [%] ([2]; 10 DAT, HER dose 8 g a.i./ha): 57%
- Reduction [Difference] ([2]; 10 DAT, HER dose 8 g a.i./ha): 53
- HER effect [%] (crop damage, herbicide without safener) ([2]; 10 DAT, HER dose 8 g a.i./ha): 93%

SMILES: C=CC1(C(=O)NC2C=CC(C(=O)OC)C2)CC(c2cc(F)cc(F)c2)=NO1 (centres unmarked) [Example 1.26]
- HER effect + SAF [4, 10]: 0%
- Reduction [%] [4, 10]: 100%
- Reduction [Difference] [4, 10]: 60
- HER effect ([4]; herbicide alone 2 g a.i./ha): 60%
- HER effect + SAF [3, 11]: 50%
- Reduction [%] [3, 11]: 44%
- Reduction [Difference] [3, 11]: 40
- HER effect ([3]; herbicide alone 2 g a.i./ha, 21 DAT): 90%
- HER effect + SAF [%] (crop damage) ([2]; 21 DAT, HER dose 2 g a.i./ha): 30%
- Reduction [%] ([2]; 21 DAT, HER dose 2 g a.i./ha): 67%
- Reduction [Difference] ([2]; 21 DAT, HER dose 2 g a.i./ha): 60
- HER effect [%] (crop damage, herbicide without safener) ([2]; 21 DAT, HER dose 2 g a.i./ha): 90%
- HER effect + SAF [%] (crop damage) ([2]; 21 DAT, HER dose 8 g a.i./ha): 70%
- Reduction [%] ([2]; 21 DAT, HER dose 8 g a.i./ha): 25%
- Reduction [Difference] ([2]; 21 DAT, HER dose 8 g a.i./ha): 23
- HER effect [%] (crop damage, herbicide without safener) ([2]; 21 DAT, HER dose 8 g a.i./ha): 93%

SMILES: C=CC1(C(=O)NC2CC=C(C(=O)OC)C2)CC(c2cc(F)cc(F)c2)=NO1 (mixture of isomers) [Example 1.60]
- HER effect + SAF [4, 12]: 20%
- Reduction [%] [4, 12]: 75%
- Reduction [Difference] [4, 12]: 60
- HER effect ([4]; herbicide alone 8 g a.i./ha): 80%
- HER effect + SAF ([1]; HER 8 g a.i./ha post-emergence): 10%
- Reduction [%] ([1]; HER 8 g a.i./ha post-emergence): 88%
- Reduction [Difference] ([1]; HER 8 g a.i./ha post-emergence): 70
- HER effect [1, 6]: 80%
- HER effect + SAF [%] (crop damage) ([2]; 21 DAT, HER dose 8 g a.i./ha): 0%
- Reduction [%] ([2]; 21 DAT, HER dose 8 g a.i./ha): 100%
- Reduction [Difference] ([2]; 21 DAT, HER dose 8 g a.i./ha): 93
- HER effect [%] (crop damage, herbicide without safener) ([2]; 21 DAT, HER dose 8 g a.i./ha): 93%
- HER effect + SAF [%] (crop damage) ([2]; 21 DAT, HER dose 32 g a.i./ha): 10%
- Reduction [%] ([2]; 21 DAT, HER dose 32 g a.i./ha): 89%
- Reduction [Difference] ([2]; 21 DAT, HER dose 32 g a.i./ha): 85
- HER effect [%] (crop damage, herbicide without safener) ([2]; 21 DAT, HER dose 32 g a.i./ha): 95%

Source: patent US20230200390A1, “SELECTIVE HERBICIDES BASED ON SUBSTITUTED ISOXAZOLIN CARBOXAMIDES AND MEFENPYR-DIETHYL” (BAYER AKTIENGESELLSCHAFT, priority 2020, published 2023)
